Laboratory results as given in patent US8460669B2, “Compositions and methods for identifying response targets and treating flavivirus infection responses” (Academia Sinica, priority 2005, dated 2013).

Tests used:
Langerin = molecular target: T1, Langerin (Homo sapiens, UniProt Q9UJ71); assay: Sugar competition EIA, Fc.Langerin binding to GLPS-F3; settings: sugar 1 mg/ml
T1 construct: The extracellular domains of lectin receptors, TREMs and TLTs were cloned by the reverse-transcriptase polymerase chain reaction (RT-PCR); made in house; host or cells: 293-F (FreeStyle 293) cells
T1 sequence (Q9UJ71 65-328 limits assumed): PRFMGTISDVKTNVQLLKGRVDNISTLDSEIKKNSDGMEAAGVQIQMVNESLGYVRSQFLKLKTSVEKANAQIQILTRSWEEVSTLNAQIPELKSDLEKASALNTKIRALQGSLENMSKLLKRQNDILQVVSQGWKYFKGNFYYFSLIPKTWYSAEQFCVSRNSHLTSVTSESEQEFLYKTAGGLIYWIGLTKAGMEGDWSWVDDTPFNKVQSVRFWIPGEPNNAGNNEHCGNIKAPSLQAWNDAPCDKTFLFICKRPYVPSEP
Method: (§1) The interaction between GLPS-F3 and receptor.Fc was then tested. Unbiotinylated GLPS-F3 was immobilized at 100 ng/well as described above, and 100 μL receptor.Fc fusion protein (1 μg/ml in 2 mM MgCl2/2 mM CaCl2/1% BSA/TBST) was added into each well and incubated for 1 hour at room temperature. After washing with TBST, wells were incubated with peroxidase-conjugated goat anti-human IgG Ab (1:5000 dilution, Jackson ImmunoResearch Laboratories) in blocking buffer at room temperature for 30 min. Wells were incubated with 100 μL TMB substrate for 15 min after TBST washing and read at 450 nm in a Fusion plate reader (Perkin Elmer). The results were normalized with respect to Fc.Dectin-1 binding (Dectin-1 is a known lectin receptor that binds to β-1,3-glucan which is the backbone found in GLPS-F3). FIG. 6B depicts in graphical form the affinity of each receptor for GLPS-F3 relative to Dectin-1. […] There was also weaker but positive GLPS-F3 binding ability (25-50% binding intensity compared to Fc.dectin-1) found in Fc.NKG2D, Fc.MINCLE, Fc.mKCR, DCAL1.Fc, DEC205.Fc, Endo180.Fc and NKp30(NCR3).Fc.
(§2) To understand the interaction of GLPS-F3 with specific innate immunity receptors, the polysaccharides mannan and β-glucan and the monosaccharides D-mannose (Man), D-glucose (Glc), N-acetyl-glucosamine (GlcNAc), D-galactose (Gal), N-acetyl-galactosamine (GalNAc), L-fucose (Fuc) and sialic acid, were used in a competition assay. […] The assays were carried out as in Example 9, with the addition of 1 mg/ml of each polysaccharide or monosaccharide.

DC-SIGN = molecular target: T2, DC-SIGN (Homo sapiens, UniProt Q9NNX6); assay: Sugar competition EIA, Fc.DC-SIGN binding to GLPS-F3; settings: sugar 1 mg/ml
T2 construct: The extracellular domains of lectin receptors, TREMs and TLTs were cloned by the reverse-transcriptase polymerase chain reaction (RT-PCR); made in house; host or cells: 293-F (FreeStyle 293) cells
T2 sequence (Q9NNX6 59-404 limits assumed): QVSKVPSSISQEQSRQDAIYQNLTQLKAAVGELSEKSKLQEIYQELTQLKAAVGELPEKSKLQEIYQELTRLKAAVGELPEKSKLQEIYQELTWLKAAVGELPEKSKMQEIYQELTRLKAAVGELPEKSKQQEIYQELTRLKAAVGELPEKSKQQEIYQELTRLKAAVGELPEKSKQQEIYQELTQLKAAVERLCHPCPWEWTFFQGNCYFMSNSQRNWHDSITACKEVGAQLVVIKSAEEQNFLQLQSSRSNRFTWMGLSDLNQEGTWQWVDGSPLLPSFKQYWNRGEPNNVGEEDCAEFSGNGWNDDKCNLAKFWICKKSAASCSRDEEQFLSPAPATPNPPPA
Method: as §1, §2

MMR.Fc = molecular target: T3, MMR.Fc (Homo sapiens, UniProt P22897); assay: Sugar competition EIA, MMR.Fc binding to GLPS-F3; settings: sugar 1 mg/ml
T3 construct: The extracellular domains of lectin receptors, TREMs and TLTs were cloned by the reverse-transcriptase polymerase chain reaction (RT-PCR); made in house; host or cells: 293-F (FreeStyle 293) cells
T3 sequence (P22897 19-1389 limits assumed): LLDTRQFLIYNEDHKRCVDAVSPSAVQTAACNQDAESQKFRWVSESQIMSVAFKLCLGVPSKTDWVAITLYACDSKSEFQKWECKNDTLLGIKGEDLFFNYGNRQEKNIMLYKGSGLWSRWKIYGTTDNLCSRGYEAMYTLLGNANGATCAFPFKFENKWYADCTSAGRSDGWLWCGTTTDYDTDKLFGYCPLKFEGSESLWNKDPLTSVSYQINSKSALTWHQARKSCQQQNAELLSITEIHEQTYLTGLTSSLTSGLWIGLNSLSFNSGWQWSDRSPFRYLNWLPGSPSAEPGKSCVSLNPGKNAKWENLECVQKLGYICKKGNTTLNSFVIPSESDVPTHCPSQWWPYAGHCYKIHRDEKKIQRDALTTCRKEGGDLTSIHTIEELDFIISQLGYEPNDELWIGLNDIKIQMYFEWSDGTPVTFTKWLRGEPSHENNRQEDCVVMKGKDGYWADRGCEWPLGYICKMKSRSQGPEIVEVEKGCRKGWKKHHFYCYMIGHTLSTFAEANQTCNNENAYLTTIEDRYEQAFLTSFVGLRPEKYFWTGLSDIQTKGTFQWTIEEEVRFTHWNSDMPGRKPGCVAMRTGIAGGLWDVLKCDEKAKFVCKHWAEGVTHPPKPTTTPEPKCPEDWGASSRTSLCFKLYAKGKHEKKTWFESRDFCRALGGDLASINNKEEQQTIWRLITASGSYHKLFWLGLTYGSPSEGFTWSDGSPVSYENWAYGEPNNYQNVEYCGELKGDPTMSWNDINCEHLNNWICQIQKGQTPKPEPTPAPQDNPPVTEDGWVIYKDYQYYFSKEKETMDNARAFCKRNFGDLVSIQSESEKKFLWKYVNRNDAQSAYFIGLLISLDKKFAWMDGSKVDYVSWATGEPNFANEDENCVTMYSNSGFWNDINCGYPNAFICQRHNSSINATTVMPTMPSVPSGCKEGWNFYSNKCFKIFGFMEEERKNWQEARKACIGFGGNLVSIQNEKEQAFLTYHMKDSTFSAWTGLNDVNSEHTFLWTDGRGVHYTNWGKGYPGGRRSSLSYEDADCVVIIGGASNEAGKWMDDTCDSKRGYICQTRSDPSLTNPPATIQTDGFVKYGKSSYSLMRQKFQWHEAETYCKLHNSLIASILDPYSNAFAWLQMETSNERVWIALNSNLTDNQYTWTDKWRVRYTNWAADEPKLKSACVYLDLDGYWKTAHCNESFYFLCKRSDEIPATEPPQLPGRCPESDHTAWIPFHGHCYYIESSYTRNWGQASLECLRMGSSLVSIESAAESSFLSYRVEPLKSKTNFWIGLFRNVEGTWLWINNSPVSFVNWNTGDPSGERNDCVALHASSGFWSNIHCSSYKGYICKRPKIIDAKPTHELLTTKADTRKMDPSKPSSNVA
Method: as §1, §2

CLEC-2 = molecular target: T4, CLEC-2 (Homo sapiens, UniProt Q9P126); assay: Sugar competition EIA, Fc.CLEC-2 binding to GLPS-F3; settings: sugar 1 mg/ml
T4 construct: The extracellular domains of lectin receptors, TREMs and TLTs were cloned by the reverse-transcriptase polymerase chain reaction (RT-PCR); made in house; host or cells: 293-F (FreeStyle 293) cells
T4 sequence (Q9P126 55-229 limits assumed): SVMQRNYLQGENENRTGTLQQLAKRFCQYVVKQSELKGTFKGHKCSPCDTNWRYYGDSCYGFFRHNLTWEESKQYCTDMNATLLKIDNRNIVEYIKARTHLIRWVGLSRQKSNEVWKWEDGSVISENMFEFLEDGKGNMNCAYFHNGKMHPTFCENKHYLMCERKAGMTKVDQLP
Method: as §1, §2

Dectin-1 = molecular target: T5, Dectin-1 (Homo sapiens, UniProt Q9BXN2); assay: Sugar competition EIA, Fc.Dectin-1 binding to GLPS-F3; settings: sugar 1 mg/ml
T5 construct: The extracellular domains of lectin receptors, TREMs and TLTs were cloned by the reverse-transcriptase polymerase chain reaction (RT-PCR); made in house; host or cells: 293-F (FreeStyle 293) cells
T5 sequence (Q9BXN2 66-247 limits assumed): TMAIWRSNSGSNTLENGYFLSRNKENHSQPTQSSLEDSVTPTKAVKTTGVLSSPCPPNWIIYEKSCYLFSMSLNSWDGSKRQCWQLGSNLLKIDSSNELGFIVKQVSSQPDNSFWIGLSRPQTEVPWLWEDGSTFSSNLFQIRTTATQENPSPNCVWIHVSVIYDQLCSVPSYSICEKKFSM
Method: as §1, §2

TLR4.Fc = molecular target: T6, TLR4.Fc (Homo sapiens, UniProt O00206); assay: Sugar competition EIA, TLR4.Fc binding to GLPS-F3; settings: sugar 1 mg/ml
T6 construct: The extracellular domains of several innate immunity receptors from immune cells were cloned by reverse-transcription polymerase chain reaction (RT-PCR); made in house; host or cells: 293-F (FreeStyle 293) cells
T6 sequence (O00206 24-631 limits assumed): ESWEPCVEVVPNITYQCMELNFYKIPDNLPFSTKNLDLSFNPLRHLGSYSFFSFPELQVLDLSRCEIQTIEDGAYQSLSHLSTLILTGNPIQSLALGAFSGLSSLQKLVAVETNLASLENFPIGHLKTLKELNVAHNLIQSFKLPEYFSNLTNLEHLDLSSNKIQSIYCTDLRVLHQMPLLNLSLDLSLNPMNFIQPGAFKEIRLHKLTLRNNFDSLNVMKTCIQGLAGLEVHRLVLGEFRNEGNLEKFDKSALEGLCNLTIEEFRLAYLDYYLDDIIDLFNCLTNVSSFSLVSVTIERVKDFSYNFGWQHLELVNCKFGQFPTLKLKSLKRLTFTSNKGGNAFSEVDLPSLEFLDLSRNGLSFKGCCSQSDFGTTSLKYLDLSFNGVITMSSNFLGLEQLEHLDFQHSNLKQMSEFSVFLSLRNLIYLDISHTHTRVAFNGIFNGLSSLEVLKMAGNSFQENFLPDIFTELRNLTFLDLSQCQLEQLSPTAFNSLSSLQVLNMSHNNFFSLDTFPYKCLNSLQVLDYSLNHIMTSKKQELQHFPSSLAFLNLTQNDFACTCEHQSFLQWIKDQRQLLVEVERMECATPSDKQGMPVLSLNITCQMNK
Method: as §1, §2

CLEC-6 = molecular target: T7, CLEC-6 (Homo sapiens, UniProt Q8WXI8); assay: Sugar competition EIA, Fc.CLEC-6 binding to GLPS-F3; settings: sugar 1 mg/ml
T7 construct: The extracellular domains of lectin receptors, TREMs and TLTs were cloned by the reverse-transcriptase polymerase chain reaction (RT-PCR); made in house; host or cells: 293-F (FreeStyle 293) cells
T7 sequence (Q8WXI8 39-215 limits assumed): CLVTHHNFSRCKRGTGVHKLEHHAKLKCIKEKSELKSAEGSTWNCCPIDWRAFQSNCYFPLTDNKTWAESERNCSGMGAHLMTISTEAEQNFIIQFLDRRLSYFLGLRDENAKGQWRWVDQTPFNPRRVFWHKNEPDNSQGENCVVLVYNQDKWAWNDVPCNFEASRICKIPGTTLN
Method: as §1, §2

Dectin-1.Fc = molecular target: T8, Dectin-1.Fc (Homo sapiens, UniProt Q9BXN2); assay: Immunosorbent dot binding assay with Dectin-1.Fc; settings: competitor 0.1 μg-1000 μg, or EDTA 10 mM in TBST
T8 construct: The extracellular domains of lectin receptors, TREMs and TLTs were cloned by the reverse-transcriptase polymerase chain reaction (RT-PCR); made in house; host or cells: 293-F (FreeStyle 293) cells
T8 sequence (Q9BXN2 66-247 limits assumed): T5 sequence (Q9BXN2 66-247 limits assumed)

Percentage of binding of Langerin Fc fusion to GLPS-F3 relative to binding in absence of sugar competitor (Langerin) [%]	inhibition of interaction between Fc.Langerin and GLPS-F3 (Langerin) [%]	Percentage of binding of DC-SIGN Fc fusion to GLPS-F3 relative to binding in absence of sugar competitor (DC-SIGN) [%]	inhibition of binding of Fc.DC-SIGN to GLPS-F3 (DC-SIGN) [%]	Percentage of binding of MMR.Fc to GLPS-F3 relative to binding in absence of sugar competitor (MMR.Fc) [%]	Percentage of binding of CLEC-2 Fc fusion to GLPS-F3 relative to binding in absence of sugar competitor (CLEC-2) [%]	inhibition of interaction of Fc.CLEC-2 to GLPS-F3 (CLEC-2) [%]	Percentage of binding of Dectin-1 Fc fusion to GLPS-F3 relative to binding in absence of sugar competitor (Dectin-1) [%]	inhibition of interaction between GLPS-F3 and Fc.Dectin-1 (Dectin-1) [%]	Percentage of binding of CLEC-6 Fc fusion to GLPS-F3 relative to binding in absence of sugar competitor (CLEC-6) [%]	Compound	inhibition of interaction between GLPS-F3 and MMR.Fc (MMR.Fc) [%]	Percentage of binding of TLR4.Fc to GLPS-F3 relative to binding in absence of sugar competitor (TLR4.Fc) [%]	inhibition of the interaction between Dectin-1.Fc and F3 (Dectin-1.Fc)
5 ± 0.3	95	10 ± 1.0	90	7 ± 2.4	45 ± 6.2	55	17 ± 0.3	83	94 ± 13.0	CC(=O)N[C@H]1[C@H]([C@H](O)[C@H](O)CO)OC(O)(C(=O)O)C[C@@H]1O (stereo partly drawn) [sialic acid]	93	77 ± 3.1	
										O=C[C@H](O)[C@@H](O)[C@@H](O)[C@H](O)CO [Gal, D-galactose]	36	100 ± 2.7	not
